The IC50 is the concentration at which inhibition is half-maximal.

The record followed here is ChEMBL document CHEMBL4382280, “Inhibitors of G12C Mutant Ras Proteins for the Treatment of Cancers” (ACS Med Chem Lett, 2019).

For this test, the target named is GTPase KRas (Homo sapiens, UniProt P01116, G12C). Briefly: Inhibition of GDP loaded biotin-labeled KRAS G12C mutant (unknown origin) assessed as reduction in guanine nucleotide exchange preincubated for 4 hrs followed by GST-RAF-RBD addition in presence of GTPgammaS by FRET assay.
Sequence of GTPase KRas (P01116 whole entry G12C): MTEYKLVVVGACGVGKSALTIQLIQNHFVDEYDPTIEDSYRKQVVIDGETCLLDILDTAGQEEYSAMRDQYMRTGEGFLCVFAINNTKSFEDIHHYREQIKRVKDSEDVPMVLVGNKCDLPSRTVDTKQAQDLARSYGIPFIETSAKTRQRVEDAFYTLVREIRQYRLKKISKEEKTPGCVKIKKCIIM

As for `C=CC(=O)N1CCN2c3ncnc4cc(-c5c(C)ccc6[nH]ncc56)c(Cl)c(c34)OC[C@@H]2C1` (stereo in doubt; form 3), the IC50 amounted to 0.012 µM. The same measure for `C=CC(=O)N1CCN2c3ncnc4cc(-c5c(C)ccc6[nH]ncc56)c(Cl)c(c34)OC[C@@H]2C1` (stereo in doubt; form 1): 0.123 µM.
